How the values were obtained:
CHO cells [1] = experiment: Morphological aggregate formation after transfection in CHO cells; format: cell-based, Chinese hamster; details: 24 hrs post transfection
Protocol: On the contrary—in areas with bulky aggregation a deficit of the normal cytoskeletal configuration was observed. In order to visualize a difference in the biophysical properties of tau and aggregating mutants, FRAP (fluorescent recovery after photobleaching) analysis was performed in CHO-cells 24 hours after transfection, using wild-type tau and the triple (M123) mutant. Tau tagged with GFP represents a perfect tool for aggregation examination in living cells in real time. Apparent differences were found between wild-type tau and the triple mutant.
Transfection of cells was performed, using the Effectene Transfection Kit (Qiagen, Germany) according to the manufacturers instructions. Following addition of 4-8 μl enhancer solution, 0.5-1 μg DNA were incubated with 10 μl Effectene and 85 μl transfection buffer. All plasmids were purified using EndoFree Maxi Kit (Qiagen, Germany).
Confocal imaging was performed with a Leica TCS SP2 confocal system fitted with an AOBS (acousto-optical beam splitter) (Leica, Germany). The objectives used were 63× water or oil immersion; adjustments were as follows: Beam Expander 3, PMT—600-700 V, pinhole 1-1.4 airy disc, zoom—variable. Luminophore excitation was performed with an Argon-ion laser at 488 nm (for GFP), GreNe laser at 543 nm (for Cy3) and HeNe 643 nm (for Cy5).

[2] = tested on: SHSY5Y neuroblastoma cells; experiment: Apoptosis detection (TUNEL, activated caspase-3 immunolabeling) in SHSY5Y cells; format: cell-based, human; details: for cells showing signs of apoptosis (TUNEL): 48 h. post transfection
Description: (§1) In order to analyse apoptosis induction in SHSY5Y neuroblastoma cells transfected with wild-type and triple mutant tau, the TUNEL method was used to label fragmented nuclear DNA, a characteristic marker of apoptosis. This was combined with the assessment of a second pathomorphological criteria: shrunken cell body with sparse cytosol and rounded cell morphology. Such a combination of criteria is considered sufficient to identify positively the occurrence of apoptosis (Stadelmann and Lassmann (2000) Cell Tissue Res. 301, 19-31). Since 48 hours after transfection a significant decrease in cell number and apparent cell degeneration is observed, this timepoint was chosen for the comparative analysis. At this timepoint the mode of degeneration, if apoptotic, should have been obvious. […] In FIG. 5a, apoptotic and non-apoptotic M123-transfected cells are shown, as well as a positive 50 nM staurosporin-treated neuroblastoma control. […] Activated caspase-3 immunolabeling, however, detected 18.66±0.93% apoptotic cells in M123 transfected neuroblastoma cells vs. 3.62±1.87% in wild-type transfected cells (p<0.01, Mann-Whitney U-test). The reason for this atypical apoptosis presentation in our system is unknown and awaits further elucidation. Next, in order to assess the real biological significance of apoptosis in the process of cell elimination, specific cell-permeable caspase-3 inhibitor and cytochrome c release inhibitor (both from Calbiochem, Germany) were used. Cells were treated 24 h. post transfection immediately after counting their reference number and incubated with apoptosis inhibitors until 60 h. post transfection in order to cover the time window with the highest decrease in cell number. […]

CHO cells [3] = experiment: AT8-detected phosphorylation in CHO cells; format: cell-based, Chinese hamster; details: CHO cells (data not shown)
[4] = tested on: SHSY5Y neuroblastoma cells; experiment: Cell survival of M123-transfected SHSY5Y cells with apoptosis inhibitors; format: cell-based, human; details: inhibitors on M123-transfected cells from 24 h. until 60 h. post transfection
Description: as §1, with “elucidation.” for “elucidation. Next, in order to assess the real biological significance of apoptosis in the process of cell elimination, specific cell-permeable caspase-3 inhibitor and cytochrome c release inhibitor (both from Calbiochem, Germany) were used. Cells were treated 24 h. post transfection immediately after counting their reference number and incubated with apoptosis inhibitors until 60 h. post transfection in order to cover the time window with the highest decrease in cell number.”

[5] = tested on: SHSY5Y neuroblastoma cells; experiment: Phosphoepitope immunocytochemistry (AT8, AT100, AT180) in SHSY5Y neuroblastoma cells; format: cell-based, human
Protocol: In order to examine the neurotoxicity of the mutant tau variants in human neuronal cell line, SHSY5Y neuroblastomas were used and the cell number of each preparation at 48 and 72 hours post transfection was normalized to the cell number in the same dish at 24 hours. […] The same effect was observed by the double mutants. Further, the presence of two specific pathological phosphoepitopes was tested using phosphospecific antibodies—AT8 (S202/T205 specific) and AT100 (T212/S214), the latter being exclusively specific for Alzheimer's disease NFTs and generally considered as the only AD-specific antibody by experts in the field of neuropathology. […] In the mutants (especially in the double and triple mutants) there was a very strong AT8 labeling, reaching 83.24±5.45% in M123 (FIG. 4c). […] This was accompanied by early phosphorylation, colocalizing with the initial tau aggregates. […] This mutant completely lacked a fragment which contains most phosphorylation sites of the projection domain (including the corresponding sites for AT8, AT100, AT180, AT270), thus confirming the independence of aggregation and phosphorylation. […] Another phosphoepitope that is highly specific for AD—T212/S214 (recognized by AT100 antibody), was present especially in double and triple mutants (FIG. 4d). In contrast to AT8, this immunolabeling was not observed in all aggregates, but only in those with bulky rounded or oval shape. […] Obviously, the formation of the T212/S214 phosphoepitope requires, apart from S202/T205 phosphoepitope formation (Schneider et al. (1999) Biochemistry 38, 3549-3558), also a specific conformational modification, apparently achieved with increase of mutant epitope number. In the M123 mutant 22.13±2.87% were also AT180 immunopositive (phosphoepitope T231) vs. none in wild-type tau transfectants (not shown). In order to assess the relative contribution of the aggregation, S202/T205 and T212/S214 phosphorylation to cell toxicity, multiple correlation analyses were performed. […]

Compound | formation of morphologically apparent aggregates (CHO cells [1]) | apoptotic cells by activated caspase-3 immunolabeling [2] [%] | cells showing signs of apoptosis (TUNEL) [2] | AT8-detected phosphorylation (CHO cells [3]) | cell survival [4] [%] | AT100 (T212/S214) immunolabeling [5] | AT180 (phosphoepitope T231) immunopositive cells [5] | AT8 (S202/T205) immunolabeled cells ([5]; 36 h. after transfection) [%]
wild-type tau: wild-type human tau 441, SEQ ID NO.:25, used as control [reference compound] | normal MT (microtubule) association without aggregates | 3.62±1.87 | 5.97±1.54% | only a slight pattern | 87.86±12.4 | did not label | none | 9.17±2.3
CN[C@@H]1C[C@H]2O[C@@](C)([C@@H]1OC)n1c3ccccc3c3c4c(c5c6ccccc6n2c5c31)C(=O)NC4 [staurosporin] | – | – | TUNEL-positive nuclei | – | – | – | – | –
